Measurements: PubChem BioAssay AID256 (DTP/NCI, 2004)
Several values for one entry are separate records, joined by “and”; a condition that tells them apart may be missing. Equal values may be shown once. Toxic doses and inconclusive results are not listed.

System: CD2F1 mice, L1210 leukemia ip, survival T/C
Assay: NCI In Vivo Anticancer Drug Screen. Data for tumor model L1210 Leukemia (intraperitoneal) in CD2F1 (CDF1) mice
Settings: endpoint: mean survival time, higher = longer survival
In short: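 Each value reflects a quotient of treated over vehicle control outcomes in mice with a transplanted tumor.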

[1] = dose: 50.0 mg/kg/injection, schedule: Q01DX009 (ip), vehicle: Klucel (hydroxypropylcellulose) (HPC)
[2] = dose: 100.0 mg/kg/injection, schedule: Q01DX009 (ip), vehicle: Klucel (hydroxypropylcellulose) (HPC)
[3] = dose: 100.0 mg/kg/injection, schedule: Q01DX001 (ip), vehicle: saline
[4] = dose: 200.0 mg/kg/injection, schedule: Q01DX001 (ip), vehicle: saline
[5] = dose: 400.0 mg/kg/injection, schedule: Q01DX001 (ip), vehicle: saline
[6] = dose: 25.0 mg/kg/injection, schedule: Q01DX009 (ip), vehicle: Klucel (hydroxypropylcellulose) (HPC)
[7] = dose: 200.0 mg/kg/injection, schedule: Q01DX009 (ip), vehicle: Klucel (hydroxypropylcellulose) (HPC)
[8] = dose: 100.0 mg/kg/injection, schedule: Q04DX003 (ip), vehicle: saline with Tween-80
[9] = dose: 200.0 mg/kg/injection, schedule: Q04DX003 (ip), vehicle: saline with Tween-80
[10] = dose: 400.0 mg/kg/injection, schedule: Q04DX003 (ip), vehicle: saline with Tween-80

Q: For COc1cc(Cl)ccc1NC(=O)OCCOc1c(C(C)C)cccc1C(C)C, which T/C (dose: 50.0 mg/kg/injection, schedule: Q01DX009 (ip), vehicle: saline with Tween-80) is on record?
A: 101 % of control

Q: What about the T/C (dose: 100.0 mg/kg/injection, schedule: Q01DX009 (ip), vehicle: saline with Tween-80) of the same molecule?
A: 101 % of control

Q: What about the T/C (dose: 200.0 mg/kg/injection, schedule: Q01DX009 (ip), vehicle: saline with Tween-80) of the same molecule?
A: 89 % of control

Q: With N#Cc1ccc(CCl)cc1 as the molecule, how does the T/C [1] read?
A: 98 % of control

Q: And the T/C [2]?
A: 98 % of control

Q: How did the T/C [3] turn out when C/C(Cl)=C\CSc1ccccc1 was run?
A: 100 % of control

Q: What about the T/C [4] of the same molecule?
A: 100 % of control

Q: And the T/C [5]?
A: 101 % of control

Q: What does the source list for C1=NC(c2ccccn2)=NNC(c2ccccn2)=C1c1ccccc1?
A: T/C (dose: 12.5 mg/kg/injection, schedule: Q01DX009 (ip), vehicle: Klucel (hydroxypropylcellulose) (HPC)): 97 % of control; T/C [6]: 100 % of control; T/C [1]: 95 % of control; T/C [2]: 100 % of control; T/C [7]: 97 % of control

Q: What does the source list for Cc1c(NC(=O)Nc2ccc(C3=NCCCN3)cc2)cccc1NC(=O)Nc1ccc(C2=NCCCN2)cc1?
A: T/C (dose: 125.0 mg/kg/injection, schedule: Q01DX Z (ip), vehicle: water): 162 % of control; T/C (dose: 250.0 mg/kg/injection, schedule: Q01DX Z (ip), vehicle: water): 177 % of control; T/C (dose: 500.0 mg/kg/injection, schedule: Q01DX Z (ip), vehicle: water): 224 % of control

Q: With O=C1/C(=C/c2ccccc2)CCS(=O)(=O)c2ccccc21 as the molecule, how does the T/C (dose: 100.0 mg/kg/injection, schedule: Q01DX001 (ip), vehicle: saline with Tween-80) read?
A: 97 % of control

Q: And the T/C (dose: 200.0 mg/kg/injection, schedule: Q01DX001 (ip), vehicle: saline with Tween-80)?
A: 97 % of control

Q: And the T/C (dose: 400.0 mg/kg/injection, schedule: Q01DX001 (ip), vehicle: saline with Tween-80)?
A: 90 % of control

Q: What does the source list for Nc1cccc2c(S(=O)(=O)O)cccc12?
A: T/C (dose: 100.0 mg/kg/injection, schedule: Q04DX003 (ip), vehicle: saline): 100 % of control; T/C (dose: 200.0 mg/kg/injection, schedule: Q04DX003 (ip), vehicle: saline): 100 % of control; T/C (dose: 400.0 mg/kg/injection, schedule: Q04DX003 (ip), vehicle: saline): 97 % of control

Q: COc1ccc(C(=Cc2cc(OC(C)=O)c3ccccc3c2OC(C)=O)c2ccc(OC)cc2)cc1 was tested. Which T/C [8] did it give?
A: 97 % of control

Q: What about the T/C [9] of the same molecule?
A: 89 % of control

Q: What about the T/C [10] of the same molecule?
A: 91 % of control

Q: Which results are given for Fc1c(F)c(N(c2ccccc2)c2ccccc2)c(F)c(F)c1N(c1ccccc1)c1ccccc1?
A: T/C [8]: 95 % of control; T/C [9]: 95 % of control; T/C [10]: 93 % of control

Q: Which T/C [3] does the source give for CN1C(=O)/C(=C/c2cccs2)SC1=S here?
A: 95 % of control

Q: What about the T/C [4] of the same molecule?
A: 98 % of control

Q: And the T/C [5]?
A: 103 % of control

Q: CC(C)NS(=O)(=O)c1ccccc1 was tested. Which T/C [8] did it give?
A: 97 % of control

Q: What about the T/C [9] of the same molecule?
A: 96 % of control

Q: What about the T/C [10] of the same molecule?
A: 99 % of control

Q: For COc1ccc(NC(=O)Oc2ccc(Cl)cc2Cl)c(Cl)c1, which T/C [6] is on record?
A: 95 % of control

Q: What about the T/C [1] of the same molecule?
A: 95 % of control and 107 % of control

Q: And the T/C [2]?
A: 98 % of control and 104 % of control

Q: And the T/C (dose: 100.0 mg/kg/injection, schedule: Q04DX003 (ip), vehicle: Klucel (hydroxypropylcellulose) (HPC))?
A: 98 % of control

Q: What about the T/C [7] of the same molecule?
A: 120 % of control and 102 % of control

Q: What about the T/C (dose: 200.0 mg/kg/injection, schedule: Q04DX003 (ip), vehicle: Klucel (hydroxypropylcellulose) (HPC)) of the same molecule?
A: 104 % of control

Q: And the T/C (dose: 400.0 mg/kg/injection, schedule: Q04DX003 (ip), vehicle: Klucel (hydroxypropylcellulose) (HPC))?
A: 112 % of control
